Laboratory results as given in ChEMBL document CHEMBL4680158, “C6-O-alkylated 7-deazainosine nucleoside analogues: Discovery of potent and selective anti-sleeping sickness agents” (Eur J Med Chem, 2020).

Columns and labels:
[1] = Inhibition of Trypanosoma brucei P1 transporter assessed as reduction in [3H]-adenosine uptake by scintillation counting method
[2] = Inhibition of Trypanosoma brucei P2 transporter assessed as reduction in [3H]-adenosine uptake by scintillation counting method
[3] = Resistance factor, ratio of EC50 for antitrypanosomal activity against drug resistant Trypanosoma brucei B48 to antitrypanosomal activity against Trypanosoma brucei brucei Lister 427 blood stream form; assay type: functional
[4] = Selectivity index, ratio of EC50 for cytotoxicity against human MRC5 cells to EC50 for antitrypanosomal activity against Trypanosoma brucei brucei; assay type: toxicity, cell-based; conditions: read-out: Ratio EC50
Trypanosoma brucei [5] = experiment: Antitrypanosomal activity against drug resistant Trypanosoma brucei ISMR1 assessed as reduction in parasite viability incubated for 48 hrs by resazurin dye based fluorescence assay; assay type: functional, organism-based; conditions: ISMR1, 48 h
Trypanosoma brucei [6] = experiment: Antitrypanosomal activity against drug resistant Trypanosoma brucei B48 assessed as reduction in parasite viability incubated for 48 hrs by resazurin dye based fluorescence assay; assay type: functional, organism-based; conditions: B48, 48 h
Trypanosoma brucei [7] = experiment: Antitrypanosomal activity against drug resistant Trypanosoma brucei harboring TbAT1 deficient assessed as reduction in parasite viability incubated for 48 hrs by resazurin dye based fluorescence assay; assay type: functional, organism-based
[8] = (§1) Inhibition of Trypanosoma brucei P2 transporter assessed as reduction in [3H]-adenosine uptake measured after 60 sec by scintillation counting method
[9] = system: Trypanosoma brucei brucei; experiment: Antitrypanosomal activity against Trypanosoma brucei brucei Lister 427 blood stream forms assessed as reduction in parasite viability incubated for 48 hrs by resazurin dye based fluorescence assay; assay type: functional, organism-based; conditions: Lister 427, 48 h
MRC5 = experiment: Cytotoxicity against human MRC5 cells assessed as reduction in cell viability incubated for 3 days by resazurin dye based fluorescence assay; conditions: MRC5, 72 h
[10] = system: Trypanosoma brucei brucei; experiment: Antitrypanosomal activity against Trypanosoma brucei brucei assessed as reduction in parasite growth incubated for 3 days by resazurin dye based fluorescence assay; assay type: functional, organism-based; conditions: 72 h
[11] = Selectivity index, ratio of EC50 for cytotoxicity against human MRC5 cells to EC50 for antitrypanosomal activity against Trypanosoma brucei rhodesiense; assay type: toxicity, cell-based; conditions: read-out: Ratio EC50
[12] = system: Trypanosoma brucei rhodesiense; experiment: Antitrypanosomal activity against Trypanosoma brucei rhodesiense assessed as reduction in parasite growth incubated for 3 days by resazurin dye based fluorescence assay; assay type: functional, organism-based; conditions: 72 h
[13] = (§2) Inhibition of Trypanosoma brucei P1 transporter assessed as reduction in [3H]-adenosine uptake measured after 60 sec by scintillation counting method
[14] = Resistance factor, ratio of EC50 for antitrypanosomal activity against drug resistant Trypanosoma brucei ISMR1 to antitrypanosomal activity against Trypanosoma brucei brucei Lister 427 blood stream form; assay type: functional
[15] = Resistance factor, ratio of EC50 for antitrypanosomal activity against drug resistant Trypanosoma brucei harboring TbAT1 deficient to antitrypanosomal activity against Trypanosoma brucei brucei Lister 427 blood stream form; assay type: functional
Trypanosoma brucei [16] = experiment: as §1
Trypanosoma brucei [17] = experiment: as §2

SMILES: Nc1ncnc2c1ccn2[C@@H]1O[C@H](CO)[C@@H](O)[C@H]1O [TUBERCIDIN]
- Ki [1]: 78 µM
- Ki [2]: 3.8 µM

SMILES: CCOc1ncnc2c1c(Cl)cn2[C@@H]1O[C@H](CO)[C@@H](O)[C@H]1O
- Ratio EC50 [3]: 1.7
- selectivity ratio [4]: > 275
- EC50 (Trypanosoma brucei [5]): 194 nM
- EC50 (Trypanosoma brucei [6]): 134 nM
- EC50 (Trypanosoma brucei [7]): 113 nM
- Ki [8]: 139 µM
- EC50 [9]: 79 nM
- EC50 (MRC5): ≥ 64 µM
- EC50 [10]: 120 nM
- selectivity ratio [11]: > 578
- EC50 [12]: 57 nM
- Ki [13]: 99 µM
- Ratio EC50 [14]: 2.45
- Ratio EC50 [15]: 1.43

SMILES: Nc1ncnc2c1ncn2[C@@H]1O[C@H](CO)[C@@H](O)[C@H]1O
- Km (Trypanosoma brucei [16]): 0.53 µM
- Km (Trypanosoma brucei [17]): 0.12 µM
